The text below walks through data of patent US8993282B2, “Carotenoid fermentation method” (JX Nippon Oil & Energy Corporation, priority 2008, dated 2015).

Molecules are shown by their SMILES.

The subject of assay [1] is Paracoccus sp. strain L-25. The assay can be described thus: Glutamate supplementation, test tube culture, lycopene-producing mutant, carotenoid by HPLC. The assay is classed as cell-based. The procedure:
(§1) In the examples, carotenoids were quantified by high performance liquid chromatography (HPLC) as follows.
(§2) Two columns of Wakosil-II 5 SIL-100 (φ4.6×250 mm) (Wako Pure Chemical Industries, Ltd., Japan) were connected to each other for use as a column. Elution was performed by flowing an n-hexane-tetrahydrofuran-methanol mixed solution (40:20:1), which was a mobile phase, at a flow rate of 1.0 mL/minute at a constant temperature around room temperature. The measurement was performed as follows. Samples were each dissolved in tetrahydrofuran and then diluted 100-fold with the mobile phase. Each dilution was injected in a volume of 20 μL. The column eluate was detected at a wavelength of 470 nm. As a reference for quantification, astaxanthin (SIGMA, Cat. No. A9335) was used. The astaxanthin concentration of the reference solution was determined using the following equation after measuring the absorbance (A) of the reference solution at 477 nm and the area percentage % (B) of the astaxanthin peak at the time of HPLC analysis under the above conditions. Astaxanthin concentration (mg/L)=A/2150×B×100
The strain E-396 (FERM BP-4283) was mutated with N-methyl-N′-nitro-N-nitrosoguanidine to select mutant strain colonies with red-purple color. Carotenoid compounds in their culture solutions were further analyzed by high performance liquid chromatography to select a strain L-25 specifically producing lycopene.
A medium of the following composition (sucrose 30 g/L, corn steep liquor 30 g/L, potassium dihydrogenphosphate 1.5 g/L, disodium hydrogenphosphate 12-hydrate 3.8 g/L, calcium chloride dihydrate 5.0 g/L, magnesium sulfate -hydrate 0.7 g/L, iron sulfate 7-hydrate 0.3 g/L, pH 7.2) was dispensed in 8 ml volumes into cotton-plugged test tubes having an inner diameter of 18 mm and sterilized in an autoclave at 121° C. for 15 minutes to prepare a test tube medium for seed culture.
Next, a medium of the following composition (glucose 30 g/L, filtered corn steep liquor 5 g/L, ammonium sulfate 1.5 g/L, potassium dihydrogenphosphate 1.5 g/L, disodium hydrogenphosphate 12-hydrate 3.8 g/L, calcium chloride dihydrate 5.0 g/L, magnesium sulfate 7-hydrate 0.7 g/L, iron sulfate 7-hydrate 0.6 g/L, ester-based defoaming agent 0.2 g/L) was dispensed in 8 ml volumes into cotton-plugged test tubes having an inner diameter of 18 mm (2 tubes in total). One of the test tubes was supplemented with monosodium L-glutamate monohydrate to 30 mmol/L, while the other was supplemented with nothing as a control. Finally, the mediums in the tubes were adjusted to pH 7.1 with aqueous ammonia and then sterilized in an autoclave at 121° C. for 20 minutes.
The Paracoccus sp. strain L-25 selected above was inoculated, into the test tube medium for seed culture and then cultured with shaking at 28° C. for 2 days at 300 spin. The resulting culture solution was then inoculated in 0.1 ml volumes into the two test tube mediums and cultured with shaking at 28° C. for 3 days at 300 spm. Each culture solution was measured for its carotenoid concentration by HPLC.

Assay [2] deals with Paracoccus sp. strain A-581-1 (FERM BP-4671). The assay is described as follows: Glutamate supplementation, 5 L fermentation tank culture, carotenoid by HPLC. In kind it is cell-based. The procedure: as §1, §2
A medium of the following composition (sucrose 20 g/L, filtered corn steep liquor 5 g/L, potassium dihydrogenphosphate 0.54 g/L, dipotassium hydrogenphosphate 12-hydrate 2.78 g/L, calcium chloride dihydrate 5.0 g/L, magnesium sulfate 7-hydrate 0.7 g/L, iron sulfate 7-hydrate 3.0 g/L, alcohol-based […] agent 0.2 g/L, pH 7.5) was dispensed in 100 ml volumes into 500 mL cotton-plugged Erlenmeyer flasks and sterilized in an autoclave at 121° C., for 15 minutes to prepare a flask medium for seed culture in 2 flasks.
Next, a medium of the following composition (glucose 40 g/L, corn steep liquor 30 g/L, ammonium sulfate 0.5 g/L, potassium dihydrogenphosphate 2.25 g/L, disodium hydrogenphosphate 12-hydrate 5.7 g/L, calcium chloride dihydrate […], magnesium sulfate 7-hydrate 0.5 g/L, iron sulfate 7-hydrate 5 g/L, alcohol-based defoaming agent 0.5 g/L) was dispensed in 2.0 L volumes into 5 L fermentation tanks (2 tanks in total). One of the fermentation tanks was supplemented with monosodium L-glutamate monohydrate to 15 mmol/L, while the other was supplemented with nothing as a control. These fermentation tanks were sterilized in an autoclave at 121° C. for 30 minutes.
A loopful of Paracoccus sp. strain A-581-1 (FERM BP-4671) was inoculated into the flask medium for seed culture and then cultured with rotary shaking at 27° C. for 2 days at 150 rpm. The resulting culture solution was then inoculated in 90 mL volumes into the individual fermentation tanks, followed by aerobic culture at 27° C. at an aeration volume of 1 vvm for 100 hours. To maintain a pH of 7.1 during culture, the pH was continuously controlled with 20% aqueous sodium hydroxide. Glucose was added in an amount of 30 g on […] day 2 of culture to prevent glucose depletion. At 22 and 29 hours of culture, monosodium L-glutamate monohydrate and ammonium sulfate were added in amounts of 5 g and 3 g, respectively, per liter of the initial medium. The minimum number of agitation rotations was set to 100 rpm, and the number of agitation rotations was varied such that the dissolved oxygen concentration in the culture solution was maintained at 2 to 4 ppm. An alcohol-based defoaming agent was added in an amount of 0.1 g per hour to prevent bubble formation,
At the completion of culture, each culture solution was measured for its carotenoid concentration by HPLC.

Where [3] appears, read: Glutamic acid concentration 30 mmol/L, 28° C. for 3 days.
[4] abbreviates: Glutamic acid concentration 15 mmol/L, 100 hours.

Turning to `N[C@@H](CCC(=O)O)C(=O)O` [Glutamic acid, glutamic acid], the “produced carotenoid concentration compared to the sample without glutamic acid” value in assay [1] (30 mmol/L) was “higher produced carotenoid concentration”. In assay [1] (setting [3]), the Adonixanthin is on record as 0.3 mg/L, the Astaxanthin came out at 0.3 mg/L, the Lycopene was 19.6 mg/L and the “Total carotenoid” value came out at 20.2 mg/L. Besides, the “produced carotenoid concentration compared to the sample without glutamic acid” value in assay [2] (15 mmol/L) was “higher produced carotenoid concentration”. Further, in assay [2] (setting [4]), the 3-Hydroxyechinenone came to 0.05 mg/L, the Adonixanthin amounted to 2.10 mg/L, the Astaxanthin is recorded as 5.97 mg/L and the Asteroidenone stood at 0.02 mg/L. In assay [2] (setting [4]), the Canthaxanthin worked out at 1.22 mg/L, the Echinenone was 0.51 mg/L, the Phoenicoxanthin is listed as 2.01 mg/L and the “Total carotenoid” value is given as 13.68 mg/L. In assay [2] (setting [4]), this compound came in with a Zeaxanthin of 0.03 mg/L, a β-Carotene of 1.76 mg/L and a β-Cryptoxanthin of 0.01 mg/L.
